From patent publication US8791072B2 (priority 2011, dated 2014)
Where “and” joins values, the source holds several entries; their conditions need not be identical. Equal entries are not always repeated. Where no end group is shown, it is not given here.

Legend:
[1] = system: neuromuscular junctions in orbicularis oculi muscle; settings: rabbit, in vivo
superior rectus muscle = settings: rabbit, in vivo
[2] = system: neuromuscular junctions in rabbit extraocular muscle; settings: in vivo; cited from earlier work
neuromuscular junction = settings: in vivo; cited from earlier work

Row | Substance | combined total muscle neuromuscular junction density, orbicularis oculi muscle [1] | increase of combined total muscle neuromuscular junction density [1] [fold] | neuromuscular junction density, preseptal region [1] | neuromuscular junction density, pretarsal region [1] | preseptal neuromuscular junction density relative to control [1] | muscle force in response to electrical stimulation (superior rectus muscle) | change in number of neuromuscular junctions in the treated area [2] | return of normal neuromuscular junction activity (neuromuscular junction) [%] | neuromuscular junction density compared to saline control (in words) [1] | neuromuscular junction density, orbicularis oculi muscle [1]
1 | botulinum toxin A | 5.9±0.43 /mm^2 | ~3 | 4.4±01 /mm^2 and 2.9±0.4 /mm^2 and 5.23±0.7 /mm^2 | 4.0±0.21 /mm^2 and 5.7±0.8 /mm^2 | between about two and three times greater than control | variable response, with some showing force equal to the saline-treated control muscles | doubling of neuromuscular junctions | 20 |  | 
2 | corticotropin releasing factor (SEEPPISLDLTFHLLREVLEMARAEQLAQQAHSNRKLMEII; ends and bridges not checked; UniProt P06850 154-194, looked up) [CRF] |  |  |  |  |  |  |  |  | not significantly different from the density in the control orbicularis oculi muscles | 2.39±0.23 /mm^2
